Data taken from patent US20100197564A1, “DIARYL MORPHOLINES AS CB1 MODULATORS” (Schering Corporation, priority 2007, published 2010).

Each compound was assayed against T1, cannabinoid CB1 (Homo sapiens, UniProt P21554) (assay: Competition binding assay for cannabinoid CB1 affinity (3H-CP55,940 displacement)). Settings: membranes from cells expressing the receptor, 0.5 nM 3H-CP55,940; Ki by Cheng-Prusoff; read-out: Ki values as measured in the above assay.
T1 construct: purchased
Experimental: Non-specific binding was defined in the presence of 10 μM CP55,940. For saturation studies, concentrations of ^3H—CP55,940 ranging from 0.1-5 nM were incubated with membranes in the presence and absence of 10 μM CP55,940. Assays were terminated after incubation for 1½ hours by rapid filtration onto 0.3% polyethylenamine treated GF/C filterplates using a BRANDEL cell harvester. The plates were dried and MICROSCINT scintillation cocktail was added, after which the bound radioactivity was quantified using a TOPCOUNT scintillation counter.
The dissociation constant (Kd) of ^3H—CP55,940 at the CB1 and CB2 receptor were determined by plotting specific binding at each concentration of radioligand, and analysis by non-linear regression. For competition studies, the concentration of each drug that inhibited 50 percent of ^3H—CP55,940 binding (IC50) was determined by non-linear regression analysis of the radioligand displacement curves. Affinity constants (K) were calculated using the equation derived by Cheng and Prusoff (1973), defined as: IC50/1+[conc. ligand/Kd].

T1 sequence (P21554 whole entry): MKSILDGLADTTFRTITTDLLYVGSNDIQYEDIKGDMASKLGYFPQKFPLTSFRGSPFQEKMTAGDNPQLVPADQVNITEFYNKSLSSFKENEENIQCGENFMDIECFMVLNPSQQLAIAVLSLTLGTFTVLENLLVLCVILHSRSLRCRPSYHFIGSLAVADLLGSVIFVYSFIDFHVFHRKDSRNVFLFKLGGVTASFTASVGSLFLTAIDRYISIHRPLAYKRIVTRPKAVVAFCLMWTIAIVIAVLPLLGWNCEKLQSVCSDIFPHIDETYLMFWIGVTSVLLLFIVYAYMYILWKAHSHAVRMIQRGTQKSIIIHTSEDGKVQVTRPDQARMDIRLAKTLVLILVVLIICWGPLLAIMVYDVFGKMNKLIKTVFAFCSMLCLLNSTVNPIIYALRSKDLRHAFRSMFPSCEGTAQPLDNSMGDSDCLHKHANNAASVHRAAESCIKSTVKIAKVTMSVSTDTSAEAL

`Fc1ccc(CC2CN(c3ccc(Cl)cc3)C(c3ccc(Cl)cc3Cl)CO2)cc1F` (stereo not shown) [Example 1] and `NCCC1CN(c2ccc(Cl)cc2)C(c2ccc(Cl)cc2Cl)CO1` (stereo not shown) [Example 5] cannot be ordered by Ki: at most 100 nM for the first, at most 800 nM for the second.

`CC(C)(C)OC(=O)CC1OCC(c2ccc(Cl)cc2Cl)N(c2ccc(Cl)cc2)C1=O` (stereo not shown) [Example 2] and `O=S(=O)(NCCC1CN(c2ccc(Cl)cc2)C(c2ccc(Cl)cc2Cl)CO1)c1cccnc1` (stereo not shown) [Example 6] cannot be ordered by Ki: at most 800 nM for the first, at most 25 nM for the second.
